Source: publication PMC8776894 (Communications Biology, 2022)
“And” between values parts separate entries of the source, which are not always exact repeats. Identical values can stand only once.

Tests used:
MCAO mice = assay: Mortality after MCAO; type: in vivo, mouse; details: vehicle 29.06, P >0.05 vs vehicle
Description: Experimental ischemic stroke was performed by MCAO using published protocols[63],[64] with some modifications. In detail, mice (8–10 weeks)[65] were deeply anesthetized with 1.5% isoflurane in a mixture of 30% O2 and 69% N2O. Conditions of the blood gas were maintained at constant levels throughout the operation (PO2, 120 ± 10 mmHg; PCO2, 35 ± 3 mmHg) and temperatures in the temporal muscle and rectum were also maintained at 37.5 ± 0.2°C and 37.0 ± 0.1°C, respectively. Body temperature was kept in the normal range (36.5–37.5 °C) with a heating lamp and a heating pad during surgery. All surgical supplies and instruments were sterilized. The […] (CCA) and the external carotid artery were then gently separated. The blood flow of CCA was blocked with a sterile nylon suture (No.: MSMC21B120PK50, Ruiwode Bio-technology Co., Ltd., China), which was inserted into middle cerebral artery from CCA. The mice in the sham group underwent the same surgery without a nylon suture. After 60 min, the suture was removed and the blood circulation was recovered, MCAO/R was induced. Regional CBF was monitored in all stroke animals by LSCI (PeriScan PSI System; PERIMED, Stockholm, Sweden) to confirm a successful occlusion. […]

[1] = tested on: neurons in cortex and hippocampus of MCAO/R mice; assay: Nissl staining; type: in vivo, mouse
Description: Mice were anesthetized at 48 h after MCAO/R. Brain samples (bregma −2.06–1.94 mm) were collected and fixed by 4% paraformaldehyde for 12–18 h. Following sequential dehydration by 10%, 20%, and 30% sucrose, brains were put in frozen section embedding medium (SAKURA Tissue-Tek O.C.T. Compound, Japan) and cut into […] sections at the level of the frontal cortex (bregma: 1.0 to −1.94 mm) using a cryostat microtome (Leica CM1950). The sections were subsequently stained with Nissl staining.

rat CNS = details: injected directly into the rat CNS; cited from earlier work
Text: B1R and B2R both belong to the G protein-coupled receptor (GPCR) family, with B2R mediating most of the physiological functions of kinin. It has been increasingly appreciated that BK and Lys-BK could act as a ‘double-edged sword’. By inhibiting oxidative stress and apoptosis, the systemic or local delivery of human TK protects against mouse myocardial I/R injury via B2R. Similarly, we described that the neuroprotective effects of VK on stroke in mice was inhibited by HOE140, the specific antagonist of B2R. We also conducted the autodock experiment to evaluate the combination of VK and B2R. The ...

[2] = tested on: platelet aggregation in platelet rich plasma; assay: Platelet aggregation function test; type: cell-based; details: VK 0.0091–0.294 µM; rabbit PRP, ADP 6.07 µmol/L, 5 min maximum aggregation rate
Description: Platelet aggregation function test. Venous blood from (normal healthy rabbits) was collected in 3 mL sodium citrate anticoagulation vacuum plastic tubes. The collected venous blood was centrifuged for 10 min at 100 × g at 4℃ to obtain the upper plasma, and the platelet rich plasma (PRP) was prepared, centrifuged again for 10 min at 2000 × g at 4°C to draw the upper plasma, the platelet poor plasma (PPP) was prepared and […] to a platelet concentration of 3×10^8 cells/ml was counted. The adjusted PRP was placed into a four-channel platelet aggregation instrument (Agg RAM, Helena Laboratories, USA) to determine the 5 min maximum platelet aggregation rate with adenosine diphosphate (ADP), arachidonic acid (AA), thrombin, collagen (COL) , and platelet-activating factor (PAF) or saline as inducers (at a final […]
Acute toxicity test. Systemic acute toxicity test by peritoneal injection was performed according to the guideline provided by Center for Drug Evaluation and Research. In addition to the normal group, male mice were randomly divided into the treated groups received a single dose of 1.5 mg/kg, 6 mg/kg, 24 mg/kg, 96 mg/kg and 384 body weight of VK. […]
The obtained plasma was analyzed using an automatic coagulation apparatus (CA1500).

MCAO/R mice [3] = assay: Longa test; type: in vivo, mouse
Text: Mice were graded on a 5-point scale, which was modified from the Longa score.

HT22 cells (OGD/R) = assay: Intracellular ROS (DCFH-DA, flow cytometry); type: cell-based, mouse; details: 24-h pretreatment with VK
MCAO/R mice [4] = assay: Transmission electron microscopy of BBB; type: in vivo, mouse
Description: Frontal cortex samples were isolated from mice with stroke and fixed in 2% glutaraldehyde and 4% paraformaldehyde in 0.1 M sodium cacodylate (pH 7.4), treated with 10% gelatin solution in sodium cacodylate buffer, and incubated with 2% osmium tetroxide. Sections were cut using a Leica EM TP ultramicrotome (Leica Microsystems) at 40 nm and placed within grids stained with a 1:1 mix of 3% uranyl acetate and 50% acetone for 30–60 s. Grids were imaged with a JEM 1400 transmission electron microscope (JEOL) at ×1200 for low magnification and ×12,000 for high magnification (unless otherwise noted) using Gatan Microscopy Suite software (Gatan).

[5] = tested on: BV2 microglia cells (OGD/R); assay: BV2 cell viability after OGD/R (CCK8); details: VK 0.0735, 0.735, 7.35 µM

## Gly-Arg-Pro-Hyp-Gly-Phe-Ser-Pro-Phe-Arg-Ile-Asp [VK, Vespakinin-M]
MCAO mice; VK 150 μg/kg, 48 MCAO animals
  Death rate (mortality) of MCAO mice: 25%
MCAO mice; VK 300 μg/kg, 64 MCAO animals
  Death rate (mortality) of MCAO mice: 18.75%
[1]
  neuron morphology, Nissl staining: morphologically intact neurons were broadly seen
Rat CNS
  anti-nociceptive potency relative to BK: approximately three times more potent
[2]
  ADP-induced platelet aggregation vs control group: decreased
MCAO/R mice [3]; 0.5d, VK 150 µg/kg i.p., individual animals
  Longa test score (Fig.2e): 4 and 3 (2×) and 2 (3×)
MCAO/R mice [3]; 0.5d, VK 300 µg/kg i.p., individual animals
  Longa test score (Fig.2e): 2 (3×) and 3 (2×) and 4
MCAO/R mice [3]; 1d, VK 150 µg/kg i.p., individual animals
  Longa test score (Fig.2e): 3 and 2 (3×) and 1 (2×)
MCAO/R mice [3]; 1d, VK 300 µg/kg i.p., individual animals
  Longa test score (Fig.2e): 2 (3×) and 3 (2×) and 1
MCAO/R mice [3]; 3d, VK 150 µg/kg i.p., individual animals
  Longa test score (Fig.2e): 2 (2×) and 1 (4×)
MCAO/R mice [3]; 3d, VK 300 µg/kg i.p., individual animals
  Longa test score (Fig.2e): 1 (2×) and 2 (4×)
MCAO/R mice [3]; 7d, VK 150 µg/kg i.p., individual animals
  Longa test score (Fig.2e): 2 and 1 (5×)
MCAO/R mice [3]; 7d, VK 300 µg/kg i.p., individual animals
  Longa test score (Fig.2e): 1 (3×) and 2 (3×)
MCAO/R mice [3]; MCAO/R mice, VK 150 and 300 µg/kg i.p.
  neurological deficits, Longa test, vs vehicle: improved neurological deficits
MCAO/R mice [3]; VK alone or with B1R / B2R blockade, individual animals, n = 5, score and time not given
  Fig8g neurological score: 1 and 2 and 0
MCAO/R mice [3]; VK alone or with B1R / B2R blockade, individual animals, n = 6, score and time not given
  Fig8f neurological score: 1 and 2
HT22 cells (OGD/R)
  OGD-induced ROS levels: rescue the OGD-induced ROS levels
MCAO/R mice [4]
  BBB integrity, TEM: could maintain BBB integrity
[5]
  OGD/R-reduced viability of BV2 cells: reversed by VK treatment in a dose-dependent manner
